Like-named read-outs stand apart in the source and are kept apart here.
What was measured:
[1] = Plasma nicotinic acid levels in rats after oral administration (Table II)
Source text: (§4) On the other hand, upon oral administration of each compound, i.e., nicotinic acid and S-nicotinate to groups of rats, the plasma nicotinic acid levels in the rats were studied. […] The other experimental conditions were the same as those described above.

serum free fatty acid = assay: Serum levels of free fatty acid in rats after oral administration (Table I); type: in vivo; details: for Serum level of free fatty acid (FFA): oral, n=6, nicotinic acid 20 mg/kg, S-nicotinate 62.2 mg/kg (equimolar)
Protocol: (§1) At the time specified in Table I, the rats were killed by pentobarbital (30 mg/kg, i.p.) anesthesia and blood was withdrawn by the carotid. The serum separated from the blood samples was assayed for free fatty acid (according to a variation of the Elphic method) and triglyceride (according to the enzyme method).

in vivo = details: rat, po, 62.2 mg/kg
Source text: as §4

serum triglyceride = assay: Serum levels of triglyceride in rats after oral administration (Table I); type: in vivo; details: for Serum level of triglyceride (TG): oral, n=6, nicotinic acid 20 mg/kg, S-nicotinate 62.2 mg/kg (equimolar)
Protocol: as §1

[2] = Acute toxicity in mice (Table IV); details: mouse, in vivo
Protocol: The acute toxicity test was conducted as follows. STD ddY strain mice, weight male 17.2-20.5 g, female 17.5-19.7 g, were used. The mice were fed on forage and water freely and kept at constant environmental conditions (temperature 23±1° C., relative humidity 55±5%, and 12 hours light) before the test. Samples of S-nicotinate water solutions (0.3 ml/10 g of body weight) were administered to each group (n=10) of mice in order to achieve levels of 5 g/kg and 10 g/kg, respectively.

serum cholesterol = assay: Serum cholesterol in alcoholic fatty liver rats (Table III); type: in vivo, male Sprague-Dawly rats; details: 0.1 mmole/kg/day for five days, n=6
Protocol: (§2) The effects of S-nicotinate were confirmed by an experiment in which alcoholic fatty liver rats were used according to the method described by A. Hosein et al., Biochemical Pharmacology, 24, page 1859, 1975.
(§3) In this experiment, male Sprague-Dawly rats, age 6 weeks, were treated as follows. The rats received 10 ml of 40% ethanol solution per kg of body weight for 3 days (at 10:00 AM on the day of sacrifice and at 4:00 PM on the other days) by gastric intubation. S-nicotinate was suspended in 0.5 (v/v)% Tween 80 aqueous solution and administered for five days (at 9:00 AM) including the day of sacrifice. After sacrificing the rats (at 1:00 PM), the total cholesterol was measured according to the Bennie Zak method (American Journal of Clinical Pathology, 27, page 583, 1957) and free fatty acid was measured by the method described by K. Itaya et al., Journal of Lipid Research, 6, page 16, 1965.

serum free fatty acids = assay: Serum free fatty acids in alcoholic fatty liver rats (Table III); type: in vivo, male Sprague-Dawly rats; details: 0.1 mmole/kg/day for five days, n=6
Protocol: as §2, §3

[3] = rat, in vivo, po
Source text: as §4

[4] = cited from earlier work
[5] = 30 min, * = significant difference from control
[6] = rats, compared with nicotinic acid

## CC(C)(CO)C(O)C(=O)NCCC(=O)NCCSC(=O)c1cccnc1 (stereo not shown) [S-nicotinate, 2,4-dihydroxy-N-[2-((2-mercaptoethyl)carbamoyl)ethyl]-3,3-dimethylbutyramide S-nicotinate]
[1]; S-nicotinate itself vs nicotinic acid, inferred from experimental results
  Activity in maintaining a satisfactory level of free nicotinic acid in the blood, in words: has the same activity as nicotinic acid itself
Serum free fatty acid; [5]
  Serum level of free fatty acid (FFA): 0.13±0.01 mEq/1
Serum free fatty acid; 60 min
  Serum level of free fatty acid (FFA): 0.13±0.01 mEq/1
Serum free fatty acid; 90 min
  Serum level of free fatty acid (FFA): 0.15±0.03 mEq/l
Serum free fatty acid; 120 min
  Serum level of free fatty acid (FFA): 0.20±0.04 mEq/l
Serum free fatty acid; 360 min
  Serum level of free fatty acid (FFA): 0.46±0.05 mEq/l
Serum free fatty acid; [6]
  Effect on serum level of free fatty acid, in words: decreases serum levels of free fatty acid and triglyceride in rats as well as nicotinic acid does
In vivo
  concentration at 0.5 h: 5200 ± 300 ng/mL
  concentration at 1 h: 3300 ± 300 ng/mL
  concentration at 1.5 h: 700 ± 400 ng/mL
Serum triglyceride; [5]
  Serum level of triglyceride (TG): 43.7 ± 5.7 mg/dL
Serum triglyceride; 60 min
  Serum level of triglyceride (TG): 22.2 ± 1.1 mg/dL
Serum triglyceride; 90 min
  Serum level of triglyceride (TG): 25.5 ± 3.3 mg/dL
Serum triglyceride; 120 min
  Serum level of triglyceride (TG): 29.2 ± 1.6 mg/dL
Serum triglyceride; 360 min
  Serum level of triglyceride (TG): 33.5 ± 8.0 mg/dL
Serum triglyceride; [6]
  Effect on serum level of triglyceride, in words: decreases serum levels of free fatty acid and triglyceride in rats as well as nicotinic acid does
[2]; iv
  LD50: 1600 mg/kg
[2]; po
  LD50: > 10000 mg/kg
Serum cholesterol
  Serum cholesterol: 79.0 ± 4.23 mg/dL
Serum free fatty acids
  Serum free fatty acids: 236±21.33 μEq/l
[3]
  Plasma nicotinic acid at 120 minutes, in words: essentially disappeared

## O=C(O)c1cccnc1 [nicotinic acid]
[1]; 10 mg/kg nicotinic acid, at 60 minutes
  Plasma nicotinic acid level, in words: almost a trace amount or was not detectable
[1]; 360 min, oral, nicotinic acid 20 mg/kg, S-nicotinate 62.2 mg/kg
  Plasma nicotinic acid level: 0 ± 0 µg/mL
[1]; rat, plasma, po, 10 mg/kg
  Cmax at 0.5 h: 8300 ng/mL
  Tmax: 30 min
[1]; rat, plasma, po, 20 mg/kg
  concentration at 0.5 h: 42800 ± 1200 ng/mL
  concentration at 1 h: 22200 ± 1600 ng/mL
  concentration at 1.5 h: 6700 ± 1600 ng/mL
  concentration at 2 h: 400 ± 300 ng/mL
[1]; rats, 120 min after oral administration
  Plasma nicotinic acid at 120 minutes, in words: essentially disappeared
[1]; rats, compared with S-nicotinate
  Rebound effect in the plasma nicotinic acid level: far larger rebound effect
Serum free fatty acid; [5]
  Serum level of free fatty acid (FFA): 0.19±0.09 mEq/1
Serum free fatty acid; 60 min
  Serum level of free fatty acid (FFA): 0.12±0.01 mEq/1
Serum free fatty acid; 90 min
  Serum level of free fatty acid (FFA): 0.13±0.02 mEq/l
Serum free fatty acid; 120 min
  Serum level of free fatty acid (FFA): 0.23±0.07 mEq/l
Serum free fatty acid; 360 min
  Serum level of free fatty acid (FFA): 0.49±0.04 mEq/l
[4]; cholesterol, triglycerides, phospholipids and free fatty acids in blood, well known
  Effect on blood lipids: reduces the levels of lipids such as cholesterol, triglycerides, phospholipids and free fatty acids in blood
[4]; clinical treatment, higher doses
  Side-effects at higher doses: flushing of the face, itching and gastrointestinal impediments
[4]; clinical treatment, normal dosage levels
  Nicotinic acid level in the blood, in words: rapidly decreases
[4]; well known
  Vasodilator effect: vasodilator effect
Serum triglyceride; [5]
  Serum level of triglyceride (TG): 35.0 ± 2.3 mg/dL
Serum triglyceride; 60 min
  Serum level of triglyceride (TG): 18.0 ± 0.7 mg/dL
Serum triglyceride; 90 min
  Serum level of triglyceride (TG): 21.2 ± 2.5 mg/dL
Serum triglyceride; 120 min
  Serum level of triglyceride (TG): 26.2 ± 1.1 mg/dL
Serum triglyceride; 360 min
  Serum level of triglyceride (TG): 32.5 ± 3.1 mg/dL

## pantothenolnicotinate
[4]; Japanese published patent specification No. 40-18109
  Effect on blood cholesterol level: able to decrease the blood cholesterol level
